# Patent US8858952B2, “Methods and materials for generating T cells” (Mayo Foundation for Medical Education and Research, priority 2009, dated 2014)
# B1: IFN-γ: cytokine included in T cell culture (protein, UniProt P01579 24-161, looked up)
# Interferon gamma: QDPYVKEAENLKKYFNAGHSDVADNGTLFLGILKNWKEESDRKIMQSQIVSFYFKLFKNFKDDQSIQKSVETIKEDMNVKFFNSNKKKRDDFEKLTNYSVTDLNVQRKAIHELIQVMAELSPAAKTGKRKRSQMLFRG
# Assays:
# [1] = system: CD4 T cells; experiment: Proliferation assay of CD4 and CD8 T cells from FR74-immunized mice; type: cell-based; settings: but not CD8 T cells, from FR74-immunized FVB mice, FIG. 3A
# Description: FIG. 3A is a plotting the stimulation indices from a proliferation assay in which CD4 and CD8 T cells from FR74-immunized mice were tested for response to non-specific stimulation (PHA), FR74 polypeptide, or an irrelevant polypeptide (Irrel pep). The stimulation index is the ratio of the thymidine incorporation in the sample with antigen and the controls ample. FIG. 3B is a graph plotting results of an IFN-γELlspot (enzyme-linked immunosorbent spot) analysis of FR74-specific T cell lines stimulated in vitro with dendritic cells (DC) pulsed with either FR74 polypeptide, FRα-overexpressing tumor cell lysate (MMC lysate), or an irrelevant polypeptide antigen (Irrel pep). Each bar is the mean (±s.e.m.) of 3 replicates.
# The FR74 polypeptide can activate CD4 T cells in FVB and B6 mice, and it is naturally processed.
# [2] = system: FR74-specific T cells; experiment: IFN-γ ELIspot of T cell cultures generated ex vivo with polypeptide-pulsed DC; type: cell-based, FVB/N mice
# Description: FIG. 4 is a graph plotting the results an IFN-γ ELIspot analyses of T cell cultures incubated with the indicated polypeptides. Epitope nesting greatly augments the numbers of antigen-specific T cells. T cells were tested in ELIspot against native FR74 polypeptide at various concentrations. Each data point is the mean of 3 determinations.
# FIG. 6. FR74-specific T cells generated with modified polypeptides recognized tumor lysates. […] Each bar is the mean (±s.e.m.) of 3 replicates.
# FIG. 7. […] The T cells were generated at varying concentrations of polypeptides (x-axis). Each point is the mean (±s.e.m.) of 3 replicates.
# In terms of proliferation, only the dual modified polypeptide was able to generate T cells that were able to proliferate at 10^−9 g/mL (FIG. 5).
# In order to determine whether furin cleavage is required, two methods are used: furin insensitive linkers and furin inhibitors. Blockade of enhanced ex vivo expansion mediated by the DC3 peptide using these two methods is powerful evidence, outside of a furin knockout mouse, that furin is required for the actions of DC3. Although it has already been shown that DC3 must be linked to antigen, as a control T cells are expanded using free FR74 mixed with free DC3. To test the role of furin with furin-insensitive linkers, RARR (SEQ ID NO:4) is replaced with VRVV (SEQ ID NO:41) with the polypeptides FR74.1, FR74.3, and FR74.8 as shown in FIG. 17. In parallel with these cultures, cultures are included in which inhibitors are included. The stoichiometric peptidyl inhibitor decanoyl-Arg-Val-Lys-Arg-CH2CL (SEQ ID NO:42) and α1-antitrypsin Portland, which are the two most commonly used inhibitors, are employed. […] Cultures are examined over a range of concentrations of inhibitors and assayed as described with ELIspot and proliferation assays. To generate Th cells, CD4^+ T cells are purified by incubation of splenocytes with anti-CD4^+ MACS microbeads (Miltenyi, Auburn, Calif.) for 20 minutes at 4° C., followed by positive selection of CD4^+ T cells using an AutoMACS automatic magnetic cell sorter according to the manufacturer's specifications. Th cell lines are established with bone marrow derived DC at a concentration of 5×10^4 T cells/mL in 24-well tissue culture-treated plates in complete medium on day 0. To derive the dendritic cells (DCs), bone marrow is harvested from the long bones of FVB/N mice and seeded in 6-well plates (3×10^6/well) in complete media with murine GM-CSF (10 ng/mL) and IL-4 (1 ng/mL). Media and cytokines are replaced after 3 days. On day 5, CPG is added to the cultures at 1 μg/mL, and the cells are ready for T cell induction on day 6. The tissue culture-generated DC are pulsed with 10 μg/mL FR74 peptide or its modifications and 10 μg/mL B7DC-crosslinking antibody at 37° C. for 4 hours. In these experiments, constant mass is maintained. Next, the peptide-loaded DC are washed with media, and the CD4+ T cells are added, and on days 8 and 10, IL-2 (50 U/mL) is added. On day 15, cells are assayed. For the ELIspot analysis, anti-IFN-γ (Pharmingen) antibody is added to a 96-well nitrocellulose-backed plate (NC-plate, Millipore) at 50 μL/well at a concentration of 10 μg/mL in PBS and incubated overnight at 4° C. The day of analysis, the NC-plate is washed with PBS and blocked for 1-2 hours at 37° C. with PBS/2%BSA. After blocking, the plate are again washed. The Th cells are transferred to the antibody-coated plates. Syngeneic naïve CD4 T cells alone without peptide antigen are used as the negative control. Th cells are seeded at 5×10^4 cells/well with a range of native (i.e., FR74) peptide, irrelevant peptide, FRαMMC tumor lysate, irrelevant tumor lysate, media or concanavalin A. Irradiated syngeneic splenocytes are added at 1 ×10^5 cells/well as antigen-presenting cells. The plate is incubated at 37° C. for 24 hours. The plate are washed with PBS/0.05% Tween-20, and 100 μL/well biotinylated anti-IFN-γ(5 μg/mL, Pharmingen) antibody are added to each well. […]
# [3] = Immunogenicity of FR74 used as a vaccine with adjuvant; type: in vivo; settings: with complete Freund's adjuvant (CFA), CpG, or GM-CSF
# Description: A native helper epitope designated FR74 was a peptide derived from the folate receptor alpha (FRα) (FIG. 2). FRα (also referred to as folate binding protein) is a glycophosphatidyl-anchored membrane glycoprotein that mediates cellular uptake of folate. This polypeptide is over-expressed on many cancers at levels of up to 80-90-fold relative to the levels observed on normal tissues. FRα is an antigen that can be used across strains, which allows one to test various strategies amongst many different I-A and I-E backgrounds. […] FR74 was modified at the amino-terminus end with an Ii-key and at the carboxy terminus with a DC3 amino acid motif (FIG. 2). To reduce enzymatic degradation in cell culture, the amino terminus of FR74 was acetylated to make FR74.1. FR74.2 is FR74 conjugated to Ii-key. It is attached with a flexible, noncleavable linker FR74.3 is FR74 conjugated to a DC3 polypeptide using a furin sensitive linker to permit cleavage. Furin is an endopeptidase that normally proteolytically activates a large number of proproteins in the cell, and it is predominantly localized to the […] (Thomas, G., Nat. Rev. Mol. Cell Biol., 3(10):753-66 (2002)). FR74.4 is a dual conjugated polypeptide. All modified peptides were acetylated at the amino terminus to prevent degradation.
# [4] = biological target: furin (Homo sapiens, UniProt P09958); settings: cited from earlier work
# Chain of furin (P09958 108-794, species assumed): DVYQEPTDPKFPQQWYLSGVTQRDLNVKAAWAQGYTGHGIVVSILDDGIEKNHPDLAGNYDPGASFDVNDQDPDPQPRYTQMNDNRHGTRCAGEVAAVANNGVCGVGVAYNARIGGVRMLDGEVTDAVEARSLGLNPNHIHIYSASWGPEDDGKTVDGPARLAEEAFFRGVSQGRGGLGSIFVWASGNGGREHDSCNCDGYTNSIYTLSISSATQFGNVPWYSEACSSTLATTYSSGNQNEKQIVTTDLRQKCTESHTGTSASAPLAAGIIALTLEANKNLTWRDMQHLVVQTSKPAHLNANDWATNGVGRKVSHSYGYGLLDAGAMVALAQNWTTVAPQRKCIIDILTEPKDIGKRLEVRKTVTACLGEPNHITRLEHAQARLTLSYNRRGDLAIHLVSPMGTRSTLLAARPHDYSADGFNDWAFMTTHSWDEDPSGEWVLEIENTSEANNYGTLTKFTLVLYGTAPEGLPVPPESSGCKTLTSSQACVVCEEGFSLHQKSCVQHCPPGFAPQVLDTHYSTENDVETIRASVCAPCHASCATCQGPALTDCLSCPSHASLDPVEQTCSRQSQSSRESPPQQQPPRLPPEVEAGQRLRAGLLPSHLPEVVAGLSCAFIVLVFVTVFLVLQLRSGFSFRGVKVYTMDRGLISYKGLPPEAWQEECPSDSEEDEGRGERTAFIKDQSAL
# [5] = system: Th cells; experiment: Cytokine secretion and Th subsets of T cell cultures under varied culture conditions; type: cell-based
# Description: FIG. 19. […] Cytokines were measured following stimulation of cells with splenocytes pulsed with either no antigen (open bars) or native FR74 polypeptide. To avoid contamination of cell culture supernatants with splenocyte-derived cytokines, the T cells were purified from the splenocytes prior to incubation to measure cytokines Each bar is the mean (±s.e.m.) of duplicate samples. Results are representative of 2 experiments.
# FIG. 20. Manipulation of culture conditions can reduce levels of IL-5 and IL-10 secreting Th cells. Shown are the concentrations of IL-5 and IL-10 within T-cell culture media following simulation of Th cells with or without peptide antigen. Each bar is the mean (±s.e.m.) of duplicate samples.
# FIG. 25. Manipulation of culture conditions can reduce levels of IL-5 secreting T cells. Shown are the concentrations of IL-5 within T cell culture media following stimulation of Th cells with or without polypeptide antigen. Each bar is the mean (±s.e.m.) of duplicate samples.
# FIG. 26. […] Shown are the concentrations of IL-17 within T cell culture media following simulations of Th cells with or without polypeptide antigen. Each bar is the mean (±s.e.m.) of duplicate samples.
# Another item is that Th subset skewing may occur which could cloud interpretations of the polypeptide modifications. […]
molecule,measurement,setting,value
KDISYLYRFNWNHCG [FR74],proliferation in response to the FR74 polypeptide (stimulation index),[1],increased proliferation
same,recognition of FRα+ tumor lysates (MMC) pulsed onto DC by FR74-specific T cell lines,"[2]; IFN-γ ELIspot, FIG. 3B",recognize FRα^+ tumor lysates
same,immunogenicity when used to generate T cell lines,[2]; using activated DC,relatively non-immunogenic
same,immunogenicity as a vaccine,[3],highly immunogenic
decanoyl-Arg-Val-Lys-Arg-CH2CL,selectivity for furin,[4],not selective
α1-antitrypsin,selectivity for furin,[4],highly selective for furin
same,Ki,[4]; furin,0.6 nM
B1,generation of IL-17-secreting Th cells,[5]; FIG. 26,blocks generation of IL-17-secreting Th cells
same,Th2 effectors (IL-5) in FR74.4 cultures,"[5]; cells incubated with FR74.4 with DC and IL-2, FIG. 25",completely blocked
